From patent US20190365784A1, “USE OF BRASSINOSTEROID ANALOGS FOR THE TREATMENT OF DERMAL DISORDERS BY SELECTIVELY MODULATING LIVER X RECEPTORS (LXR) AND DERMAL DISEASE TREATMENT BY BRASSINOSTEROID ANALOGS ACTING AS SELECTIVE LIVER X RECEPTOR (LXR) MODULATORS” (CONSEJO NACIONAL DE INVESTIGACIONES CIENTÍFICAS Y TÉCNICAS …, priority 2015, published 2019)

How the values were obtained:
IL-8 = IL-8 expression in UV-irradiated HaCaT cells (real time PCR); type: cell-based, human; conditions: 10 uM, 24 h after UV, normalized to GAPDH
Procedure: (§1) HaCaT cells—a human immortalized keratinocyte cell line—were exposed to 15 J/m^2 UVB (254 nm) irradiation. Twenty four hours after irradiation, the cells were harvested and RNA isolated to assess the expression of LXR-alpha, LXR-beta, ABCA1, TNF-alpha, IL-6, and IL-8 genes. HaCaT cells were cultured in DMEM supplemented with 10% (v/v) fetal bovine serum, penicillin (100 U/mL), streptomycin ([…]) and glutamine (2 mM). […] The expressions of ABCA1, TNF-alpha, IL-6, IL-8, LXR-alpha, and LXR-beta were normalized according to glyceraldehyde-3-phosphate dehydrogenase (GAPDH) expression. The results of three independent assays, carried out in duplicate for each condition, are reported.

LXR-alpha [1] = target: T1, LXR-alpha (Homo sapiens, UniProt Q13133); assay: LXR-alpha/RXR LRE-luciferase reporter in transfected BHK cells; type: cell-based; set-up: expressed in transfected cells; host or cells: BHK (baby hamster kidney cells), transient transfection as for HEK293T; conditions: for stimulation of LXR-alpha-driven gene transcription [(LXRE)-luciferase activity] / effect on LXR-alpha-driven expression of luciferase: 1 uM; for stimulation of LXR-alpha-driven gene transcription [(LXRE)-luciferase activity]: 3 uM and 10 uM; for effect on LXR-alpha-driven expression of luciferase / LXR-alpha-driven luciferase expression, increase compared with vehicle-treated cells: 18 h
T1 sequence (Q13133 1-447): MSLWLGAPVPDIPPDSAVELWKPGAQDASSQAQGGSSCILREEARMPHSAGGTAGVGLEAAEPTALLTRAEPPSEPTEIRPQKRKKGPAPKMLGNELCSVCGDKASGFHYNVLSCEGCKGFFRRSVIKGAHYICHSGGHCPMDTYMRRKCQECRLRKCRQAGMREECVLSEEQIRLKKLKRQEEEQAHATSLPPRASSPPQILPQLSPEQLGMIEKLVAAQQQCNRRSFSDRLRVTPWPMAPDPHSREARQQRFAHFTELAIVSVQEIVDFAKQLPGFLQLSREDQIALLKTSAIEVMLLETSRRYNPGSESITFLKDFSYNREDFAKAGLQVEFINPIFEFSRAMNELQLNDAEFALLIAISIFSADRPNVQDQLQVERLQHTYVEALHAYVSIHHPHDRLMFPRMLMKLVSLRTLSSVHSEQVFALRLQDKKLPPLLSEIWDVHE
T1 sequence (P19793 1-462 partner): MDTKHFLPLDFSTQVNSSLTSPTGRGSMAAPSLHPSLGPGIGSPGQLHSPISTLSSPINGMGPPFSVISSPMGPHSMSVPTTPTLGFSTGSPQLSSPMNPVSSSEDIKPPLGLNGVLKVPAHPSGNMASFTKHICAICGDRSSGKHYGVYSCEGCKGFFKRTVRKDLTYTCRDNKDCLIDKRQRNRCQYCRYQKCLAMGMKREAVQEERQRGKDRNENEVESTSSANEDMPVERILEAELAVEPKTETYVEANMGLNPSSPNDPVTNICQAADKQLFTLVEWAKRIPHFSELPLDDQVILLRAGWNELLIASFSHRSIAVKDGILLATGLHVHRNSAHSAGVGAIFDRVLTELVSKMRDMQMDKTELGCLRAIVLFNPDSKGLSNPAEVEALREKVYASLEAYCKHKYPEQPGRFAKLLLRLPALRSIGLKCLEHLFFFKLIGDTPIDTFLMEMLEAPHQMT
Procedure: B. Baby hamster kidney cells (5×10^5 cells/well) were cultured and transiently transfected as described above (Methods A.) for HEK293T cells. After transfection, the culture medium was replaced by serum-free DMEM, and the cells were incubated for 18 h with either Compound I or Compound II at 1×10^−6 M, 3×10^−6 M or 10^−5 M each, or vehicle [DMSO, 0.1% (v/v) final concentration], or GW3965 at a concentration of 10^−6 M. LXR-alpha activation was determined as described in A.

LXR-beta = LXR-beta expression in UV-irradiated HaCaT cells (real time PCR); type: cell-based, human; conditions: 10 uM, 24 h after UV, vs. DMSO (UV, 24 h) and GW3965 (UV, 24 h)
Procedure: as §1

ABCG1 [2] = assay: ABCG1 expression in HepG2 cells (real time PCR); type: cell-based, human; conditions: 10 uM, 6 h
Procedure: (§2) The cells were incubated for 6 h in the presence of either Compound I (10 uM), or Compound II (10 uM), or the commercial LXR agonist GW3965 (1 uM), or Vehicle [DMSO, 0.1% (v/v)]). To obtain RNA, at the end of the incubation the cells were collected by centrifugation at 1,000 rpm for 2 min, washed with phosphate buffered saline, and lysed in 300 ul TRIZOL (Invitrogen). RNA samples were suspended in ul of RNAse free water, and their concentration determined (NanoDrop spectrophotometer). The ratio of the absorbance at 260 and 280 nm was used to assess RNA purity of an RNA preparation, with a value of 1.8-2.0 indicating pure RNA. To obtain cDNA, 1 ug of total RNA was denatured by incubating for 5 min at 70° C., before the addition of a mixture containing 0.5 ug oligo-dT primers and 25 ng/ml of random primers (Invitrogen), 1.0 mM dNTPs (Invitrogen), and 200 U M-MLV reverse transcriptase (Promega); after this the mixture was retrotranscribed at 37° C. for 60 min, followed by an incubation at 95° C. for 5 min to inactivate the enzyme. For the real time PCR amplification (Stratagene Thermal Cycler), cDNA samples were diluted 1/5 to 1/10 depending on the target amplification product. Calibration curves were obtained by use of eight successive 1:2 sample dilutions. Amplifications were carried out in a 25 ul final volume (5 ul cDNA sample plus 20 ul of reaction mixture) in the presence of either 3, 4 or 5 mM MgCl2 (depending on the amplified sequence), 0.25 mM dNTPs (Invitrogen), 1.25 U Taq polymerase (Invitrogen), 1 μM of the specific primers according to the target amplification sequence, and 0.025 μl SYBR Green (Roche). Melting curves were used to assess the specificity of the amplification products. […]

ABCG1 [3] = assay: ABCG1 expression in HL-60 cells (real time PCR); type: cell-based, human; conditions: 10 uM, 6 h
Procedure: To investigate the effects of Compounds I and II on the expression of three genes involved in lipid metabolism [fatty acid synthase (FAS); and two ATP-dependent cholesterol and phospholipid transporters, such as ABCA1 and ABCG1], human promyelocytic leukemia cells (HL-60) that endogenously express LXR-alpha and LXR-beta were incubated in the presence of either Comp I or Comp II (10 uM), or GW3965 (1 uM) for 6 h. mRNA levels for FAS, ABCA1 and ABCG1 were determined by real time PCR and results were normalized to GAPDH expression. HL-60 (10^6 cells/well) were cultured in RPMI medium supplemented with 5% (v/v) fetal bovine serum, penicillin (100 IU/mL), streptomycin (100 ug/mL) y cyprofloxacin (0.4 ug/mL). […] To obtain RNA, at the end of the incubation the cells were collected by centrifugation at 1,000 rpm for 2 min, washed with phosphate buffered saline, and lysed in 300 ul TRIZOL (Invitrogen). RNA samples were suspended in […] of RNAse free water, and their concentration determined (NanoDrop spectrophotometer). […] To obtain cDNA, 1 ug of total RNA was denatured by incubating for 5 min at 70° C., before the addition of a mixture containing 0.5 ug oligo-dT primers and 25 ng/ml of random primers (Invitrogen), 1.0 mM dNTPs (Invitrogen), and 200 U M-MLV reverse transcriptase (Promega); after this the mixture was retrotranscribed at 37° C. for 60 min, followed by an incubation at 95° C. for 5 min to inactivate the enzyme. For the real time PCR amplification (Stratagene Thermal Cycler), cDNA samples were diluted 1/5 to 1/10 depending on the target amplification product. Calibration curves were obtained by use of eight successive 1:2 sample dilutions. Amplifications were carried out in a 25 ul final volume (5 ul cDNA sample plus 20 ul of reaction mixture) in the presence of either 3, 4 or 5 mM MgCl2 (depending on the amplified sequence), 0.25 mM dNTPs (Invitrogen), 1.25 U Taq polymerase (Invitrogen), 1 μM of the specific primers according to the target amplification sequence, and 0.025 μl SYBR Green (Roche). […]

LXR-alpha [4] = assay: LXR-alpha expression in UV-irradiated HaCaT cells (real time PCR); type: cell-based, human; conditions: 10 uM, 24 h after UV, vs. DMSO (UV, 24 h) and GW3965 (UV, 24 h)
Procedure: as §1

SRBEP-1 = SRBEP-1 expression in HepG2 cells (real time PCR); type: cell-based, human; conditions: 1 uM, 3 uM and 10 uM, 6 h
Procedure: as §2

[5] = system: fatty acid synthase (FAS or FASN); assay: FASN expression in HepG2 cells (real time PCR); type: cell-based, human; conditions: 1 uM, 3 uM and 10 uM, 6 h
Procedure: as §2

Structure (SMILES): CC[C@@H](C(C)C)[C@H](O)[C@@H](O)[C@@H](C)[C@H]1CC[C@H]2[C@@H]3CCC4=CC(=O)CC[C@]4(C)[C@H]3CC[C@]12C [Compound I, (22S,23S)-22,23-dihydroxystigmast-4-en-3-one]
- IL-8 expression versus DMSO-treated cells (IL-8): significantly lower
- stimulation of LXR-alpha-driven gene transcription [(LXRE)-luciferase activity] (LXR-alpha [1]): within the same concentration range as GW3965
- effect on LXR-alpha-driven expression of luciferase (LXR-alpha [1]): no effect
- LXR-alpha-driven luciferase expression, increase compared with vehicle-treated cells (LXR-alpha [1]; 3 uM): 3 fold
- LXR-beta expression (LXR-beta): stimulated LXR-beta expression even further
- induction of ABCG1 expression (ABCG1 [2]): 8 times
- effect on ABCG1 expression (ABCG1 [3]): none of the test compounds significantly affected
- LXR-alpha expression (LXR-alpha [4]): stimulated LXR-alpha expression even further
- induction of SRBEP-1 expression (SRBEP-1): did not induce
- induction of FASN expression [5]: did not induce

Structure (SMILES): CC[C@@H](C(C)C)[C@H](O)[C@@H](O)[C@@H](C)[C@H]1CC[C@H]2[C@@H]3CCC4=CC(=O)C=C[C@]4(C)[C@H]3CC[C@]12C [Compound II, (22S,23S)-22,23-dihydroxystigmasta-1,4-dien-3-one]
- IL-8 expression versus DMSO-treated cells (IL-8): significantly lower
- stimulation of LXR-alpha-driven gene transcription [(LXRE)-luciferase activity] (LXR-alpha [1]): within the same concentration range as GW3965
- effect on LXR-alpha-driven expression of luciferase (LXR-alpha [1]): no effect
- LXR-alpha-driven luciferase expression, increase compared with vehicle-treated cells (LXR-alpha [1]; 3 uM): 3 fold
- LXR-alpha-driven luciferase expression, increase compared with vehicle-treated cells (LXR-alpha [1]; 10 uM): 3 fold
- LXR-beta expression (LXR-beta): more modest than that observed for Compound I
- induction of ABCG1 expression (ABCG1 [2]): 3 times
- effect on ABCG1 expression (ABCG1 [3]): none of the test compounds significantly affected
- LXR-alpha expression (LXR-alpha [4]): stimulated LXR-alpha expression even further
- induction of SRBEP-1 expression (SRBEP-1): did not induce
- induction of FASN expression [5]: did not induce
